32 molecules from patent US9216173B2, “2-Pyridyl carboxamide-containing spleen tyrosine kinase (SYK) inhibitors” (Merck Sharp & Dohme Corp., priority 2011, dated 2015) can be followed below.

Structures are written as SMILES. A value given as a limit tells only on which side of the number the result lay.

The target in the first assay is T1, recombinant human GST-SYK (Homo sapiens, UniProt P43405).
T1 construct: purchased Carna Biosciences 08-176
Kind of assay: Homogeneous Time-Resolved Fluorescence (HTRF) assay for the recombinant human Syk enzyme. Format: biochemical. The conditions noted are these: GST-hSYK 5 pM, ATP 25 μM, 10-dose titration 10 μM to 0.508 nM; read-out: IC50. Summed up:
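GST-hSYK fusion phosphorylates a peptide for 45 min at room temperature. Quenched with EDTA buffer containing 2 nM Eu-anti-phosphotyrosine antibody and 70 nM SA-APC. HTRF signal read after 30 min.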
Broadly, the IC50 is the point on the concentration scale where inhibition reaches its midpoint. As for `Cc1nc(C)c(Cl)c(Nc2cc(N[C@@H]3CCCC[C@@H]3N)cnc2C(N)=O)n1` [Example 1.126, 5-{[(1R,2S)-2-aminocyclohexyl]amino}-3-[(5-chloro-2,6-dimethylpyrimidin-4-yl)amino]pyridine-2-carboxamide], the IC50 was 1300 nM.

The same assay, now with this note: GST-hSYK 5 pM, ATP 25 μM, 10-dose titration 10 μM to 0.508 nM; read-out: rhSYK Activity (IC50 rating).
`COC[C@H](N)CNc1cnc(C(N)=O)c(Nc2ccn(-c3ccc(F)cc3)n2)c1` [Example 1.99, 5-{[(2R)-2-amino-3-methoxypropyl]amino}-3-{[1-(4-fluorophenyl)-1H-pyrazol-3-yl]amino}pyridine-2-carboxamide]: the IC50 was less than 10 nM. Same read-out and setting: with `CCc1cccc(Nc2cc(NC[C@@H](N)COC)cnc2C(N)=O)n1` [Example 1.100, 5-{[(2R)-2-amino-3-methoxypropyl]amino}-3-[(6-ethylpyridin-2-yl)amino]pyridine-2-carboxamide] the figure was less than 10 nM; with `NC(=O)c1ncc(N[C@@H]2CCCC[C@@H]2N)cc1Nc1cccc(-c2cn(Cc3ccccc3)nn2)n1` [Example 1.101, 5-{[(1R,2S)-2-aminocyclohexyl]amino}-3-{[6-(1-benzyl-1H-1,2,3-triazol-4-yl)pyridin-2-yl]amino}pyridine-2-carboxamide], less than 10 nM; with `Cc1cc(Nc2cc(N[C@@H]3CCCC[C@@H]3N)cnc2C(N)=O)nc(-n2nccn2)c1` [Example 1.102, 5-{[(1R,2S)-2-aminocyclohexyl]amino}-3-{[4-methyl-6-(2H-1,2,3-triazol-2-yl)pyridin-2-yl]amino}pyridine-2-carboxamide], less than 10 nM. Still for that read-out and setting: to `NC(=O)c1ncc(NCC2(N)CC2)cc1Nc1cccc(C(F)(F)F)n1` [Example 1.103, 5-{[(1-aminocyclopropyl)methyl]amino}-3-{[6-(trifluoromethyl)pyridin-2-yl]amino}pyridine-2-carboxamide] belongs less than 10 nM; to `C[C@H](N)CNc1cnc(C(N)=O)c(Nc2cccc(C(F)(F)F)n2)c1` [Example 1.104, 5-{[(2S)-2-aminopropyl]amino}-3-{[6-(trifluoromethyl)pyridin-2-yl]amino}pyridine-2-carboxamide], less than 10 nM; to `COC[C@H](N)CNc1cnc(C(N)=O)c(Nc2cccc(C(F)(F)F)n2)c1` [Example 1.105, 5-{[(2R)-2-amino-3-methoxypropyl]amino}-3-{[6-(trifluoromethyl)pyridin-2-yl]amino}pyridine-2-carboxamide], less than 10 nM. Take `NC(=O)c1ncc(N[C@H]2[C@@H](N)CCCC2(F)F)cc1Nc1cccc(C(F)(F)F)n1` [Example 1.106, 5-{[(1S,6S)-6-amino-2,2-difluorocyclohexyl]amino}-3-{[6-(trifluoromethyl)pyridin-2-yl]amino}pyridine-2-carboxamide]: the IC50 was less than 10 nM. Same read-out and setting: with `Cc1cc2ccsc2c(Nc2cc(N[C@@H]3CCCC[C@@H]3N)cnc2C(N)=O)n1` [Example 1.107, 5-{[(1R,2S)-2-aminocyclohexyl]amino}-3-[(5-methylthieno[2,3-c]pyridin-7-yl)amino]pyridine-2-carboxamide] the figure was less than 10 nM; with `Cc1cc(Nc2cc(N[C@@H]3CCCC[C@@H]3N)cnc2C(N)=O)nc(-c2cnn(C)c2)c1` [Example 1.110, 5-{[(1R,2S)-2-aminocyclohexyl]amino}-3-{[4-methyl-6-(1-methyl-1H-pyrazol-4-yl)pyridin-2-yl]amino}pyridine-2-carboxamide], less than 10 nM. Still for that read-out and setting: with `COc1ccc(Nc2cc(N[C@@H]3CCCC[C@@H]3N)cnc2C(N)=O)nc1C` [Example 1.111, 5-{[(1R,2S)-2-aminocyclohexyl]amino}-3-[(5-methoxy-6-methylpyridin-2-yl)amino]pyridine-2-carboxamide] the figure was less than 10 nM; with `Cc1cc(Nc2cc(N[C@@H]3CCCC[C@@H]3N)cnc2C(N)=O)nc(-c2ccnn2C)c1` [Example 1.112, 5-{[(1R,2S)-2-aminocyclohexyl]amino}-3-{[4-methyl-6-(1-methyl-1H-pyrazol-5-yl)pyridin-2-yl]amino}pyridine-2-carboxamide], less than 10 nM. On the same count and under the same terms, to `Cc1cc(Nc2cc(N[C@@H]3CCCC[C@@H]3N)cnc2C(N)=O)nc(-c2cnn3c2CCCC3)c1` [Example 1.113, 5-{[(1R,2S)-2-aminocyclohexyl]amino}-3-{[4-methyl-6-(4,5,6,7-tetrahydropyrazolo[1,5-a]pyridin-3-yl)pyridin-2-yl]amino}pyridine-2-carboxamide] belongs less than 10 nM; to `Cc1cc(Nc2cc(N[C@@H]3CCCC[C@@H]3N)cnc2C(N)=O)nc(-c2cnc(C(C)(C)O)s2)c1` [Example 1.114, 5-{[(1R,2S)-2-aminocyclohexyl]amino}-3-({6-[2-(1-hydroxy-1-methylethyl)-1,3-thiazol-5-yl]-4-methylpyridin-2-yl}amino)pyridine-2-carboxamide], less than 10 nM.

Turning to `Cc1cc(Nc2cc(N[C@@H]3CCCC[C@@H]3N)cnc2C(N)=O)nc(-c2cnn3c2CCC3)c1` [Example 1.115, 5-{[(1R,2S)-2-aminocyclohexyl]amino}-3-{[6-(5,6-dihydro-4H-pyrrolo[1,2-b]pyrazol-3-yl)-4-methylpyridin-2-yl]amino}pyridine-2-carboxamide], the IC50 is less than 10 nM.

For the molecule `CCC(C)(N)CNc1cnc(C(N)=O)c(Nc2cc(C)cc(C)n2)c1` (stereo not drawn) [Example 1.117, 5-[(2-amino-2-methylbutyl)amino]-3-[(4,6-dimethylpyridin-2-yl)amino]pyridine-2-carboxamide], the IC50 was less than 10 nM.

For `Cc1cc(C)nc(Nc2cc(NCC(N)C3CC3)cnc2C(N)=O)c1` (stereo not drawn) [Example 1.118, 5-[(2-amino-2-cyclopropylethyl)amino]-3-[(4,6-dimethylpyridin-2-yl)amino]pyridine-2-carboxamide], the IC50 is less than 10 nM.

With `CN1CCN(c2cccc(Nc3cc(N[C@@H]4CCCC[C@@H]4N)cnc3C(N)=O)n2)CC1` [Example 1.119, 5-{[(1R,2S)-2-aminocyclohexyl]amino}-3-{[6-(4-methylpiperazin-1-yl)pyridin-2-yl]amino}pyridine-2-carboxamide], the IC50 was less than 10 nM. `CC(C)(O)COCc1cccc(Nc2cc(N[C@@H]3CCCC[C@@H]3N)cnc2C(N)=O)n1` [Example 1.120, 5-{[(1R,2S)-2-aminocyclohexyl]amino}-3-({6-[(2-hydroxy-2-methylpropoxy)methyl]pyridin-2-yl}amino)pyridine-2-carboxamide]: the IC50 is less than 10 nM. On the same count and under the same terms, with `Cc1cncc(Nc2cc(N[C@@H]3CCCC[C@@H]3N)cnc2C(N)=O)n1` [Example 1.121, 5-{[(1R,2S)-2-aminocyclohexyl]amino}-3-[(6-methylpyrazin-2-yl)amino]pyridine-2-carboxamide] the figure was less than 10 nM; with `NC(=O)c1ncc(N[C@@H]2CCCC[C@@H]2N)cc1Nc1ccnc(-n2nccn2)n1` [Example 1.122, 5-{[(1R,2S)-2-aminocyclohexyl]amino}-3-{[2-(2H-1,2,3-triazol-2-yl)pyrimidin-4-yl]amino}pyridine-2-carboxamide], less than 10 nM; with `NC(=O)c1ncc(N[C@@H]2CCCC[C@@H]2N)cc1Nc1ccncn1` [Example 1.123, 5-{[(1R,2S)-2-aminocyclohexyl]amino}-3-(pyrimidin-4-ylamino)pyridine-2-carboxamide], 100 to 1000 nM. Turning to `COc1cc(Nc2cc(N[C@@H]3CCCC[C@@H]3N)cnc2C(N)=O)nc(OC)n1` [Example 1.124, 5-{[(1R,2S)-2-aminocyclohexyl]amino}-3-[(2,6-dimethoxypyrimidin-4-yl)amino]pyridine-2-carboxamide], the half-maximal inhibitory concentration (IC50) was less than 10 nM.

`Cc1cc(Nc2cc(N[C@@H]3CCCC[C@@H]3N)cnc2C(N)=O)nc(C)n1` [Example 1.125, 5-{[(1R,2S)-2-aminocyclohexyl]amino}-3-[(2,6-dimethylpyrimidin-4-yl)amino]pyridine-2-carboxamide]: the IC50 is less than 10 nM. The same measure, in the same setting: to `Cc1nc(C)c(Cl)c(Nc2cc(N[C@@H]3CCCC[C@@H]3N)cnc2C(N)=O)n1` [Example 1.126, 5-{[(1R,2S)-2-aminocyclohexyl]amino}-3-[(5-chloro-2,6-dimethylpyrimidin-4-yl)amino]pyridine-2-carboxamide] belongs 1000 to 10000 nM; to `Cc1nc(Cl)cc(Nc2cc(N[C@@H]3CCCC[C@@H]3N)cnc2C(N)=O)n1` [Example 1.127, 5-{[(1R,2S)-2-aminocyclohexyl]amino}-3-[(6-chloro-2-methylpyrimidin-4-yl)amino]pyridine-2-carboxamide], less than 10 nM. With `NC(=O)c1ncc(N[C@@H]2CCCC[C@@H]2N)cc1Nc1nc(Cl)ncc1F` [Example 1.128, 5-{[(1R,2S)-2-aminocyclohexyl]amino}-3-[(2-chloro-5-fluoropyrimidin-4-yl)amino]pyridine-2-carboxamide], the IC50 was 10 to 100 nM. Same read-out and setting: to `NC(=O)c1ncc(N[C@@H]2CCCC[C@@H]2N)cc1Nc1ccnc(C2CC2)n1` [Example 1.129, 5-{[(1R,2S)-2-aminocyclohexyl]amino}-3-[(2-cyclopropylpyrimidin-4-yl)amino]pyridine-2-carboxamide] belongs less than 10 nM; to `Cc1cc(C)nc(Nc2cc(N[C@@H]3CCOC[C@@H]3N)cnc2C(N)=O)c1` [Example 1.130, 5-{[(3R,4R)-3-aminotetrahydro-2H-pyran-4-yl]amino}-3-[(4,6-dimethylpyridin-2-yl)amino]pyridine-2-carboxamide], less than 10 nM; to `COc1cc(C)nc(Nc2cc(N[C@@H]3CCOC[C@@H]3N)cnc2C(N)=O)c1` [Example 1.131, 5-{[(3R,4R)-3-aminotetrahydro-2H-pyran-4-yl]amino}-3-[(4-methoxy-6-methylpyridin-2-yl)amino]pyridine-2-carboxamide], less than 10 nM. As to `CNC(=O)C(N)CNc1cnc(C(N)=O)c(Nc2cc(C)cc(C)n2)c1` (stereo not drawn) [Example 2.1, 5-{[2-amino-3-(methylamino)-3-oxopropyl]amino}-3-[(4,6-dimethylpyridin-2-yl)amino]pyridine-2-carboxamide], the IC50 was 100 to 1000 nM. `Cc1nc(Nc2cc(NC[C@H](C)N)cnc2C(N)=O)ccc1Br` [Example 2.2, 5-{[(2S)-2-aminopropyl]amino}-3-[(5-bromo-6-methylpyridin-2-yl)amino]pyridine-2-carboxamide]: the half-inhibitory concentration (IC50) is less than 10 nM.
